Reference: PubChem BioAssay (NCI)
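Interpolation was linear, between the two tested concentrations surrounding the appropriate level; five concentrations were tested over 48 hours in 96-well plates. TGI: concentration producing complete growth inhibition.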

Key:
Test in all cases: NCI tumour cell line growth inhibition, 48 h
NCI/ADR-RES ovarian = test system: NCI/ADR-RES ovarian
COLO 205 colon = test system: COLO 205 colon
OVCAR-5 ovarian = test system: OVCAR-5 ovarian
MALME-3M melanoma = test system: MALME-3M melanoma
EKVX NSCLC = test system: EKVX NSCLC
HOP-62 NSCLC = test system: HOP-62 NSCLC
HS 578T breast = test system: HS 578T breast
A549 NSCLC = test system: A549 NSCLC
SNB-75 CNS = test system: SNB-75 CNS
786-0 renal = test system: 786-0 renal
MDA-MB-435 = test system: MDA-MB-435
SF-295 CNS = test system: SF-295 CNS
MCF7 breast = test system: MCF7 breast
CCRF-CEM leukemia = test system: CCRF-CEM leukemia
SK-MEL-2 melanoma = test system: SK-MEL-2 melanoma
HCT-116 colon = test system: HCT-116 colon
KM12 colon = test system: KM12 colon
MOLT-4 leukemia = test system: MOLT-4 leukemia
NCI-H23 lung = test system: NCI-H23 lung
OVCAR-4 ovarian = test system: OVCAR-4 ovarian
MDA-N = test system: MDA-N
SR leukemia = test system: SR leukemia
K-562 leukemia = test system: K-562 leukemia
SF-539 CNS = test system: SF-539 CNS
MDA-MB-231 breast = test system: MDA-MB-231 breast
SK-OV-3 ovarian = test system: SK-OV-3 ovarian
SW-620 colon = test system: SW-620 colon
IGROV1 ovarian = test system: IGROV1 ovarian
NCI-H226 lung = test system: NCI-H226 lung
RXF 393 renal = test system: RXF 393 renal
HL-60(TB) leukemia = test system: HL-60(TB) leukemia
UACC-62 melanoma = test system: UACC-62 melanoma
RPMI-8226 leukemia = test system: RPMI-8226 leukemia
BT-549 breast = test system: BT-549 breast
HT29 colon = test system: HT29 colon
NCI-H522 lung = test system: NCI-H522 lung
LOX IMVI melanoma = test system: LOX IMVI melanoma
CAKI-1 renal = test system: CAKI-1 renal
PC-3 prostate = test system: PC-3 prostate
U251 CNS = test system: U251 CNS
HCT-15 colon = test system: HCT-15 colon
SNB-19 CNS = test system: SNB-19 CNS
SK-MEL-5 melanoma = test system: SK-MEL-5 melanoma
SN12C renal = test system: SN12C renal
ACHN renal = test system: ACHN renal
TK-10 renal = test system: TK-10 renal
SK-MEL-28 melanoma = test system: SK-MEL-28 melanoma
T-47D breast = test system: T-47D breast
DU-145 prostate = test system: DU-145 prostate
UACC-257 melanoma = test system: UACC-257 melanoma
SF-268 CNS = test system: SF-268 CNS
OVCAR-8 ovarian = test system: OVCAR-8 ovarian
M14 melanoma = test system: M14 melanoma
OVCAR-3 ovarian = test system: OVCAR-3 ovarian
NCI-H460 lung = test system: NCI-H460 lung
UO-31 renal = test system: UO-31 renal

## O=C1CC(n2ccnc2)c2c(Cl)sc(Cl)c21 (stereo unspecified)
NCI/ADR-RES ovarian
  TGI: 71.5 µM
COLO 205 colon
  TGI: 33.8 µM
OVCAR-5 ovarian
  TGI: 48.1 µM
MALME-3M melanoma
  TGI: 36.1 µM
EKVX NSCLC
  TGI: 38.7 µM
HOP-62 NSCLC
  TGI: 51.9 µM
HS 578T breast
  TGI: > 78.8 µM
A549 NSCLC
  TGI: > 64.7 µM
SNB-75 CNS
  TGI: 52 µM
786-0 renal
  TGI: > 37.9 µM
MDA-MB-435
  TGI: 49.6 µM
SF-295 CNS
  TGI: > 78.1 µM
MCF7 breast
  TGI: 28 µM
CCRF-CEM leukemia
  TGI: > 22.6 µM
SK-MEL-2 melanoma
  TGI: 54.9 µM
HCT-116 colon
  TGI: 29.5 µM
KM12 colon
  TGI: 33.9 µM
MOLT-4 leukemia
  TGI: > 24 µM
NCI-H23 lung
  TGI: 30.9 µM
OVCAR-4 ovarian
  TGI: 42.3 µM
MDA-N
  TGI: 50.4 µM
SR leukemia
  TGI: > 19.8 µM
K-562 leukemia
  TGI: > 38.1 µM
SF-539 CNS
  TGI: 35.4 µM
MDA-MB-231 breast
  TGI: 36.5 µM
SK-OV-3 ovarian
  TGI: > 79.5 µM
SW-620 colon
  TGI: > 33.1 µM
IGROV1 ovarian
  TGI: 26.6 µM
NCI-H226 lung
  TGI: 77.1 µM
RXF 393 renal
  TGI: 33.9 µM
HL-60(TB) leukemia
  TGI: > 100 µM
UACC-62 melanoma
  TGI: 32 µM
RPMI-8226 leukemia
  TGI: > 100 µM
BT-549 breast
  TGI: 32.8 µM
HT29 colon
  TGI: 43.6 µM
NCI-H522 lung
  TGI: 17.1 µM
LOX IMVI melanoma
  TGI: 19.2 µM
CAKI-1 renal
  TGI: 36.1 µM
PC-3 prostate
  TGI: 36.7 µM
U251 CNS
  TGI: 35.6 µM
HCT-15 colon
  TGI: 28.1 µM
SNB-19 CNS
  TGI: 38.3 µM
SK-MEL-5 melanoma
  TGI: 41.2 µM
SN12C renal
  TGI: 37.3 µM
ACHN renal
  TGI: 33.2 µM
TK-10 renal
  TGI: 45.1 µM
SK-MEL-28 melanoma
  TGI: > 54.7 µM
T-47D breast
  TGI: 53.2 µM
DU-145 prostate
  TGI: 30.6 µM
UACC-257 melanoma
  TGI: > 51.1 µM
SF-268 CNS
  TGI: 59.3 µM
OVCAR-8 ovarian
  TGI: 27.8 µM
M14 melanoma
  TGI: 35.3 µM
OVCAR-3 ovarian
  TGI: 30.3 µM
NCI-H460 lung
  TGI: > 73.9 µM
UO-31 renal
  TGI: 27 µM
